We go through 21 compounds from US11014895B2, “Heterocyclic urea compound, and drug composition and application thereof” (CHINA PHARMACEUTICAL UNIVERSITY, priority 2017, dated 2021).

Each structure is given as a SMILES string. Where only a bound is given, the exact number is not on record here.

Assay [1] deals with T1, IDO1 enzyme in the Hela cell (Homo sapiens, UniProt P14902).
T1 construct: endogenous in cells; host or cells: HeLa cells stimulated with interferon γ (100 ng/ml)
The experiment in a line: Cell activity: interferon γ-stimulated Hela cells, absorbance of supernatant at 480 nm. The following applies: interferon γ 100 ng/ml, 72 hours. Format: cell-based. The method, boiled down: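 HeLa cells treated with compound plus interferon γ (100 ng/ml final) and cultured 72 h at 37 °C. Supernatant treated with trichloroacetic acid 30 min at 50 °C, centrifuged, then mixed with 2% dimethylaminobenzaldehyde in acetic acid; absorbance read at 480 nm.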

The target of the next assay is IDO1 enzyme (Homo sapiens, UniProt P14902). The experiment in a line: Determination of biochemical activity of IDO1 enzyme (absorbance at 320 nm). As to conditions: room temperature, 3 hours. In short, it runs like this: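 Enzyme and compound were reacted in sodium hydrogen phosphate buffer (pH 7-8) for 3 hours at room temperature. Absorbance at 320 nm gave inhibition rate, and IC50 was calculated from it.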
Chain of IDO1 enzyme (P14902 whole entry): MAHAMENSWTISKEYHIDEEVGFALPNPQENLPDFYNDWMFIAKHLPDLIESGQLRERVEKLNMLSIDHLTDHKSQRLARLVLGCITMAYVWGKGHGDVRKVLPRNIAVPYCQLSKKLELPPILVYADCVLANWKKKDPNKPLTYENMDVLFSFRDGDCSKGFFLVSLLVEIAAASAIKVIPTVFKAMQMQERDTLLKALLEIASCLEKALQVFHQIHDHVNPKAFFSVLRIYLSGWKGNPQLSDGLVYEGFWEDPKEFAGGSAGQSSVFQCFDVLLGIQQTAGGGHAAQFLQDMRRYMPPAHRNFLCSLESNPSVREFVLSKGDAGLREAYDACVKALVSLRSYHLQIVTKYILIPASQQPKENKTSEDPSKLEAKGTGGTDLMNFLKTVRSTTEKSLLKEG

T1 sequence (P14902 whole entry): as above

Take `N=C(Nc1ccc(O)cc1)Nc1nonc1/C(=N/O)Nc1ccc(F)c(Br)c1` [Embodiment 141, (Z)-1-(4-(N-(3-bromo-4-fluorophenyl)-N′-hydroxyaminoiminomethyl)-1,2,5-oxadiazole-3-substituted)-3-(4-hydroxyphenyl)guanidine]: the IC50 (in assay [1]; against IDO1 enzyme) was under 0.001 µM throughout.

Take `Nc1ccc(NC(=O)Nc2nonc2/C(=N/O)Nc2ccc(F)c(Cl)c2)cc1` [Embodiment 24, (Z)-1-(4-(N-(3-chloro-4-fluorophenyl)-N′-hydroxyaminoiminomethyl)-1,2,5-oxadiazole-3-substituted)-3-(4-aminophenyl)urea]: the half-maximal inhibitory concentration (IC50) (in assay [1]; at IDO1 enzyme) was under 0.001 µM in each case.

Consider `N=C(Nc1nonc1/C(=N/O)Nc1ccc(F)c(Br)c1)NC1CC1` [Embodiment 149, (Z)-1-(4-(N-(3-bromo-4-fluorophenyl)-N′-hydroxyaminoiminomethyl)-1,2,5-oxadiazole-3-substituted)-3-(cyclopropyl)guanidine], for which the 50% inhibitory concentration (IC50) (in assay [1]; at IDO1 enzyme) was over 1 µM in each case.

As for `CS(=O)(=O)NCCCNC(=O)Nc1nonc1/C(=N/O)Nc1ccc(F)c(Br)c1` [Embodiment 17, (Z)-1-(4-(N-(3-bromo-4-fluorophenyl)-N′-hydroxyaminoiminomethyl)-1,2,5-oxadiazole-3-substituted)-3-(3-methamido-propyl)urea], the concentration for half-maximal inhibition (IC50) (in assay [1]; against IDO1 enzyme) was under 0.001 µM in each case.

In the case of `O=C(NCCO)Nc1conc1/C(=N/O)Nc1ccc(F)c(Br)c1` [Embodiment 110], the IC50 (in assay [1]; against IDO1 enzyme) was under 0.001 µM each time.

With `COc1ccc(NC(=S)Nc2nocc2/C(=N/O)Nc2ccc(F)c(Br)c2)cc1` [Embodiment 133, (Z)-1-(4-(N-(3-bromo-4-fluorophenyl)-N′-hydroxyaminoiminomethyl)-isoxazole-3-substituted)-3-(4-methoxyphenyl)thiourea], the half-inhibitory concentration (IC50) (in assay [1]; against IDO1 enzyme) was 0.1 to 1 µM in each case.

Regarding `CS(=O)(=O)NCCNC(=O)Nc1cocc1/C(=N/O)Nc1ccc(F)c(Br)c1` [Embodiment 72, (Z)-1-(4-(N-(3-bromo-4-fluorophenyl)-N′-hydroxyaminoiminomethyl)-furan-3-substituted)-3-(2-methamidoethyl)urea], the IC50 (in assay [1]; against IDO1 enzyme) was 0.1 to 1 µM throughout.

Take `O=C(Nc1ccccc1)Nc1cocc1/C(=N/O)Nc1ccc(F)c(Br)c1` [Embodiment 60, (Z)-1-(4-(N-(3-bromo-4-fluorophenyl)-N′-hydroxyaminoiminomethyl)-furan-3-substituted)-3-phenylurea]: the half-maximal inhibitory concentration (IC50) (in assay [1]; against IDO1 enzyme) was over 1 µM in each case.

For the compound `N=C(Nc1ccc(N)cc1)Nc1nonc1/C(=N/O)Nc1ccc(F)c(Br)c1` [Embodiment 142, (Z)-1-(4-(N-(3-bromo-4-fluorophenyl)-N′-hydroxyaminoiminomethyl)-1,2,5-oxadiazole-3-substituted)-3-(4-aminophenyl)guanidine], the IC50 (in assay [1]; at IDO1 enzyme) was under 0.001 µM in each case.

On to `NCCCNC(=O)Nc1nonc1/C(=N/O)Nc1ccc(F)c(Br)c1` [Embodiment 14, (Z)-1-(4-(N-(3-bromo-4-fluorophenyl)-N′-hydroxyaminoiminomethyl)-1,2,5-oxadiazole-3-substituted)-3-(3-aminopropane)urea], for which the IC50 (in assay [1]; against IDO1 enzyme) was under 0.001 µM in each case.

`O=C(Nc1ccc(C(F)(F)F)cc1)Nc1nonc1/C(=N/O)Nc1ccc(F)c(Br)c1` [Embodiment 6, (Z)-1-(4-(N-(3-bromo-4-fluorophenyl)-N′-hydroxyaminoiminomethyl)-1,2,5-oxadiazole-3-substituted)-3-(4-trifluorotolyl)urea]: the concentration for half-maximal inhibition (IC50) (in assay [1]; against IDO1 enzyme) was over 1 µM throughout.

For `COc1ccc(NC(=S)Nc2nonc2/C(=N/O)Nc2ccc(F)c(Br)c2)c(F)c1` [Embodiment 120], the IC50 (in assay [1]; at IDO1 enzyme) was over 1 µM in each case.

Regarding `CS(=O)(=O)N1CCC(NC(=O)Nc2nonc2/C(=N/O)Nc2ccc(F)c(Br)c2)CC1` [Embodiment 12, (Z)-1-(4-(N-(3-bromo-4-fluorophenyl)-N′-hydroxyaminoiminomethyl)-1,2,5-oxadiazole-3-substituted)-3-(1(methsulfonyl)piperidine-4-substituted)urea], the IC50 (in assay [1]; at IDO1 enzyme) was 0.1 to 1 µM in each case.

For `COc1ccc(NC(=O)Nc2conc2/C(=N/O)Nc2ccc(F)c(Cl)c2)cc1` [Embodiment 112, (Z)-1-(4-(N-(3-chloro-4-fluorophenyl)-N′-hydroxyaminoiminomethyl)-isoxazole-3-substituted)-4-(4-methoxyphenyl)urea], the IC50 (in assay [1]; on IDO1 enzyme) was 0.1 to 1 µM each time.

As for `NS(=O)(=O)NCCCNC(=O)Nc1nonc1/C(=N/O)Nc1ccc(F)c(Br)c1` [Embodiment 18, (Z)-1-(4-(N-(3-bromo-4-fluorophenyl)-N′-hydroxyaminoiminomethyl)-1,2,5-oxadiazole-3-substituted)-3-(3-aminosulfonylamino-propyl)urea], the half-inhibitory concentration (IC50) (in assay [1]; at IDO1 enzyme) was under 0.001 µM in each case.

With `O=C(Nc1cccnc1)Nc1cocc1/C(=N/O)Nc1ccc(F)c(Br)c1` [Embodiment 75, (Z)-1-(4-(N-(3-bromo-4-fluorophenyl)-N′-hydroxyaminoiminomethyl)-furan-3-substituted)-3-(3-aminopyridine)urea], the IC50 (in assay [1]; at IDO1 enzyme) was 0.1 to 1 µM each time.

`N=C(Nc1ccccc1)Nc1nonc1/C(=N/O)Nc1ccc(F)c(Br)c1` [Embodiment 140, (Z)-1-(4-(N-(3-bromo-4-fluorophenyl)-N′-hydroxyaminoiminomethyl)-1,2,5-oxadiazole-3-substituted)-3-phenylguanidine]: the IC50 (in assay [1]; against IDO1 enzyme) was 0.1 to 1 µM each time.

On to `O=C(Nc1ccncn1)Nc1nonc1/C(=N/O)Nc1ccc(F)c(Br)c1` [Embodiment 45, (Z)-1-(4-(N-(3-bromo-4-fluorophenyl)-N′-hydroxyaminoiminomethyl)-1,2,5-oxadiazole-3-substituted)-3-(pyrimidine-4-substituted)urea], for which the concentration for half-maximal inhibition (IC50) (in assay [1]; against IDO1 enzyme) was over 1 µM in each case.

Consider `NCCNC(=O)Nc1cocc1/C(=N/O)Nc1ccc(F)c(Br)c1` [Embodiment 69, (Z)-1-(4-(N-(3-bromo-4-fluorophenyl)-N′-hydroxyaminoiminomethyl)-furan-3-substituted)-3-(2-aminoethyl)urea], for which the half-maximal inhibitory concentration (IC50) (in assay [1]; against IDO1 enzyme) was 0.1 to 1 µM throughout.

For the compound `O=C(Nc1nonc1/C(=N/O)Nc1ccc(F)c(Br)c1)NC1CC1` [Embodiment 32, (Z)-1-(4-(N-(3-bromo-4-fluorophenyl)-N′-hydroxyaminoiminomethyl)-1,2,5-oxadiazole-3-substituted)-3-cyclopropylurea], the half-inhibitory concentration (IC50) (in assay [1]; against IDO1 enzyme) was 0.1 to 1 µM throughout.

Consider `CS(=O)(=O)NCCNC(=O)Nc1nonc1/C(=N/O)Nc1ccc(F)c(Cl)c1` [Embodiment 29, (Z)-1-(4-(N-(3-chloro-4-fluorophenyl)-N′-hydroxyaminoiminomethyl)-1,2,5-oxadiazole-3-substituted)-3-(3-methamido-ethyl)urea], for which the concentration for half-maximal inhibition (IC50) (in assay [1]; on IDO1 enzyme) was under 0.001 µM in each case.
